# Test results reported in patent US10219516B2, “Molecules having pesticidal utility, and intermediates, compositions, and processes, related thereto” (priority 2015, dated 2019).
# Where two headings read alike, the source gives them in different places.
# Experiments:
# Assay type in all cases: in vivo
# [1] = test system: Beet Armyworm (Spodoptera exigua, LAPHEG); experiment: Bioassay on Beet Armyworm (BAW), 128-well diet tray assay
# In short: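 Diet in each of eight wells received 50 μg/cm^2 of test molecule (90:10 acetone-water, dried), then one to five second-instar larvae were added. Mortality (%) was scored after five to seven days at 25° C. under 14:10 light-dark and averaged across the wells.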
# [2] = test system: Yellow Fever Mosquito (Aedes aegypti, AEDSAE); experiment: Bioassay on Yellow Fever Mosquito (YFM), 96-well plate larval assay; details: for YFM (Biological Results, rating): Species YFM (Yellow Fever Mosquito); for YFM rating: Yellow Fever Mosquito, 96-well plate larval assay
# In short: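 Compound stocks at 4000 ppm in DMSO were diluted with 90:10 water/acetone, and 15 μL aliquots were dispensed into six replicate plates. About 1-day-old larvae in liver-powder water were added per well. Plates were covered and held at room temperature for 3 days before each well was scored for mortality.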
# [3] = test system: Cabbage Looper (Trichoplusia ni, TRIPNI); experiment: Bioassay on Cabbage Looper (CL), 128-well diet tray assay; details: Trichoplusia ni
# In short: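 Using eight wells per molecule, artificial diet was dosed at 50 μg/cm^2 with compound in 90:10 acetone-water and dried before one to five second-instar larvae were added per well. Covered vented trays were kept at 25° C. with 14:10 light-dark for five to seven days, then per-well percent mortality was recorded and averaged.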
# [4] = test system: Green Peach Aphid (Myzus persicae, MYZUPE); experiment: Bioassay on Green Peach Aphid (GPA), foliar spray on infested cabbage seedlings; details: 72 h
# In short: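 Cabbage seedlings (2-3 true leaves) infested with 20-50 wingless adult and nymph aphids one day before treatment; sprayed to runoff at 200 ppm in 0.025% Tween 20 water with 20% acetone/methanol, four pots per treatment. Held three days at about 25° C; live aphids counted, % control by Abbott's correction versus solvent check.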
# [5] = Species BAW (Beet Armyworm), read-out: BAW (Biological Results, rating)
# [6] = Species CL (Cabbage Looper), read-out: CL (Biological Results, rating)
# [7] = foliar, Species GPA (Green Peach Aphid), read-out: GPA (Biological Results, rating)
# [8] = Beet Armyworm, 128-well diet tray assay, read-out: BAW rating
# [9] = Cabbage Looper, 128-well diet tray assay, read-out: CL rating
# [10] = Green Peach Aphid, foliar spray on cabbage seedlings, read-out: GPA rating
Structure (SMILES),"pest or weed control at 50 µg/cm2 [1, 5]","YFM (Biological Results, rating) [2]","pest or weed control at 50 µg/cm2 [3, 6]","pest or weed control at 200 µg/mL [4, 7]","pest or weed control at 50 µg/cm2 [1, 8]",YFM rating [2],"pest or weed control at 50 µg/cm2 [3, 9]","pest or weed control at 200 µg/mL [4, 10]"
"O=C(Nc1ccc(F)cc1)c1cc(NC(=O)[C@H]2[C@H](c3cc(Cl)cc(Cl)c3)C2(Cl)Cl)ccc1F (relative stereo) [F129, trans-5-(2,2-Dichloro-3-(3,5-dichlorophenyl)cyclopropane-1-carboxamido)-2-fluoro-N-(4-fluorophenyl)benzamide]",50 to 100%,A (80-100),50 to 100%,80 to 100%,–,–,–,–
"O=C(Nc1ccc(F)cc1)c1nc(NC(=O)[C@H]2[C@H](c3cc(Cl)cc(Cl)c3)C2(Cl)Cl)ccc1Cl (relative stereo) [F131, trans-3-Chloro-6-(2,2-dichloro-3-(3,5-dichlorophenyl)cyclopropane-1-carboxamido)-N-(4-fluorophenyl)picolinamide]",50 to 100%,A (80-100),50 to 100%,0 to 80%,–,–,–,–
"O=C(Nc1ccc[n+]([O-])c1)c1cc(NC(=O)[C@H]2[C@H](c3cc(Cl)cc(Cl)c3)C2(Cl)Cl)ccc1Cl (relative stereo) [F139, trans-3-(2-chloro-5-(2,2-dichloro-3-(3,5-dichlorophenyl)cyclopropane-1-carboxamido)benzamido)pyridine 1-oxide]",50 to 100%,A (80-100),50 to 100%,0 to 80%,–,–,–,–
"O=C(Nc1cccnc1F)c1cc(NC(=O)[C@H]2[C@H](c3cc(Cl)cc(Cl)c3)C2(Cl)Cl)ccc1Cl (relative stereo) [F156, trans-2-Chloro-5-(2,2-dichloro-3-(3,5-dichlorophenyl)cyclopropane-1-carboxamido)-N-(2-fluoropyridin-3-yl)benzamide]",50 to 100%,B (More than 0-Less than 80),50 to 100%,80 to 100%,–,–,–,–
"O=C(Nc1c(F)cccc1F)c1cc(NC(=O)[C@H]2[C@H](c3cc(Cl)cc(Cl)c3)C2(Br)Br)ccc1Cl (relative stereo) [F162, trans-2-Chloro-5-(2,2-dibromo-3-(3,5-dichlorophenyl)cyclopropane-1-carboxamido)-N-(2,6-difluorophenyl)benzamide]",50 to 100%,B (More than 0-Less than 80),50 to 100%,0 to 80%,–,–,–,–
"O=C(Nc1c(F)cccc1F)c1cc(NC(=O)[C@H]2[C@H](c3ccc(Cl)c(F)c3)C2(Cl)Cl)ccc1Cl (relative stereo) [F163, trans-2-Chloro-5-(2,2-dichloro-3-(4-chloro-3-fluorophenyl)cyclopropane-1-carboxamido)-N-(2,6-difluorophenyl)benzamide]",50 to 100%,B (More than 0-Less than 80),50 to 100%,0 to 80%,–,–,–,–
"O=C(Nc1ccc(F)cc1F)c1cc(NC(=O)[C@H]2[C@H](c3cc(F)cc(C(F)(F)F)c3)C2(Cl)Cl)ccc1Cl (relative stereo) [F412, 2-Chloro-5-(trans)-(2,2-dichloro-3-(3-fluoro-5-(trifluoromethyl)phenyl)cyclopropane-1-carboxamido)-N-(2,4-difluorophenyl)benzamide]",–,–,–,–,50 to 100%,A (80-100),50 to 100%,80 to 100%
"O=C(Nc1ccc(F)cc1F)c1cc(NC(=O)[C@H]2[C@H](c3cc(F)cc(Br)c3)C2(Cl)Cl)ccc1Cl (relative stereo) [F423, 5-(trans)-(3-(3-Bromo-5-fluorophenyl)-2,2-dichlorocyclopropane-1-carboxamido)-2-chloro-N-(2,4-difluorophenyl)benzamide]",–,–,–,–,50 to 100%,A (80-100),50 to 100%,80 to 100%
"O=C(Nc1cnc2[nH]ccc2c1)c1cc(NC(=O)[C@H]2[C@H](c3cc(Cl)cc(Cl)c3)C2(Cl)Cl)ccc1Cl (relative stereo) [F481, 2-Chloro-5-(trans)-(2,2-dichloro-3-(3,5-dichlorophenyl)cyclopropane-1-carboxamido)-N-(1H-pyrrolo[2,3-b]pyridin-5-yl)benzamide]",–,–,–,–,50 to 100%,A (80-100),50 to 100%,0 to 80%
"O=C(Nc1ccc(F)cc1)c1cc(NC(=O)[C@H]2[C@H](c3ccc(F)c(Cl)c3)C2(Cl)Cl)ccc1Cl (relative stereo) [PF4, trans-2-Chloro-5-(2,2-dichloro-3-(3-chloro-4-fluorophenyl)cyclopropane-1-carboxamido)-N-(4-fluorophenyl)benzamide]",–,–,–,–,50 to 100%,B (More than 0-Less than 80),50 to 100%,80 to 100%
"CN(C(=O)c1cc(NC(=O)[C@H]2[C@H](c3ccc(F)c(Cl)c3)C2(Cl)Cl)ccc1Cl)c1ccc(F)cc1 (relative stereo) [PF5, trans-2-Chloro-5-(2,2-dichloro-3-(3-chloro-4-fluorophenyl)cyclopropane-1-carboxamido)-N-(4-fluorophenyl)-N-methylbenzamide]",–,–,–,–,50 to 100%,A (80-100),50 to 100%,80 to 100%
"COCC(=O)N(C)c1ccc(NC(=O)c2cc(NC(=O)[C@H]3[C@H](c4cc(Cl)cc(Cl)c4)C3(Cl)Cl)ccc2Cl)cc1 (relative stereo) [PF31, trans-2-Chloro-5-(2,2-dichloro-3-(3,5-dichlorophenyl)cyclopropane-1-carboxamido)-N-(4-(2-methoxy-N-methylacetamido)phenyl)benzamide]",–,–,–,–,50 to 100%,B (More than 0-Less than 80),50 to 100%,0 to 80%
"CN(C(=O)c1cc(NC(=O)[C@H]2[C@H](c3ccc(Cl)c(F)c3)C2(Cl)Cl)ccc1Cl)c1ccc(F)cc1 (relative stereo) [PF35, trans-2-Chloro-5-(2,2-dichloro-3-(4-chloro-3-fluorophenyl)cyclopropane-1-carboxamido)-N-(4-fluorophenyl)-N-methylbenzamide]",–,–,–,–,50 to 100%,A (80-100),50 to 100%,80 to 100%
"CN(C(=O)c1cc(NC(=O)[C@H]2[C@H](c3cc(Cl)cc(Br)c3)C2(Cl)Cl)ccc1Cl)c1ccc(F)cc1 (relative stereo) [PF38, trans-5-(3-(3-Bromo-5-chlorophenyl)-2,2-dichlorocyclopropane-1-carboxamido)-2-chloro-N-(4-fluorophenyl)-N-methylbenzamide]",–,–,–,–,50 to 100%,A (80-100),50 to 100%,80 to 100%
"N#Cc1cc(F)ccc1NC(=O)c1cc(NC(=O)[C@H]2[C@H](c3cc(Cl)cc(Cl)c3)C2(Cl)Cl)ccc1Cl (relative stereo) [PF67, trans-2-Chloro-N-(2-cyano-4-fluorophenyl)-5-(2,2-dichloro-3-(3,5-dichlorophenyl)cyclopropane-1-carboxamido)benzamide]",–,–,–,–,50 to 100%,B (More than 0-Less than 80),50 to 100%,80 to 100%
"O=C(Nc1ccc(F)cc1C(F)(F)F)c1cc(NC(=O)[C@H]2[C@H](c3cc(Cl)cc(Cl)c3)C2(Cl)Cl)ccc1Cl (relative stereo) [PF69, trans-2-chloro-5-(2,2-dichloro-3-(3,5-dichlorophenyl)cyclopropane-1-carboxamido)-N-(4-fluoro-2-(trifluoromethyl)phenyl)benzamide]",–,–,–,–,50 to 100%,B (More than 0-Less than 80),50 to 100%,80 to 100%
"O=C(Nc1cccc(C(F)(F)F)c1)c1cc(NC(=O)[C@H]2[C@H](c3cc(Cl)cc(Cl)c3)C2(Cl)Cl)ccc1Cl (relative stereo) [PF71, trans-2-Chloro-5-(2,2-dichloro-3-(3,5-dichlorophenyl)cyclopropane-1-carboxamido)-N-(3-(trifluoromethyl)phenyl)benzamide]",–,–,–,–,50 to 100%,A (80-100),50 to 100%,0 to 80%
"O=C(Nc1cccc([N+](=O)[O-])c1)c1cc(NC(=O)[C@H]2[C@H](c3cc(Cl)cc(Cl)c3)C2(Cl)Cl)ccc1Cl (relative stereo) [PF73, trans-2-Chloro-5-(2,2-dichloro-3-(3,5-dichlorophenyl)cyclopropane-1-carboxamido)-N-(3-nitrophenyl)benzamide]",–,–,–,–,50 to 100%,B (More than 0-Less than 80),50 to 100%,80 to 100%
